“Also recorded” adds a separate entry of the source.
Legend:
PBMCs = test: RT-PCR gene expression of cytokines and chemokines in LPS-treated PBMCs from HV; details: LPS 1.5 hrs then compound 1.5 hrs
macrophages = test: Cytokine production in LPS-stimulated macrophages; type: cell-based, human; details: compound 4 h or 24 h
Protocol: (§1) For Macrophages: monocytes were differentiated into macrophages by stimulation with 50 ng/ml of MCS-F for 5 days followed by treatment with 50 ng/ml Interferon gamma for ˜16 hours. Macrophages were then plated, allowed to acclimate for 24 hours. […] All cells were cultured at 37° C. with 5% CO2 in a humidified incubator. Supernatants were collected for further analysis. Cytokine and chemokine analysis was performed in the supernatants using Magpix magnetic beads.

[1] = test system: peripheral blood mononuclear cell (PBMCs); test: Cytokine assessment in PBMCs pretreated with compound, then LPS or SEB/IL-2 treatment; type: cell-based, human; details: 1 h pretreatment
monocytes = test: Cytokine production in LPS-stimulated monocytes; type: cell-based, human
Protocol: (§2) In addition, PBMCs were isolated from buffy coat using Ficoll gradient method and were used for monocyte enrichment without CD16 depletion with the Stem Cell technologies kit (Cat #19058). […] All cells were cultured at 37° C. with 5% CO2 in a humidified incubator.
as §2, with “For Monocytes:” for “In addition,”, “incubator. Supernatant was collected for cytokine and chemokine analysis.” for “incubator.”
as §1

whole blood = test: Pharmacodynamic assessment in MAD study, ex vivo LPS stimulation of whole blood (TruCulture); parameters: species or system human; details: healthy volunteers, 150 mg, individual level data
Protocol: The study consisted of escalating multiple doses in sequential groups. Thirty-seven subjects were enrolled into 5 dose level cohorts (10, 30, 60, 120, and 150 mg).
Each subject participated in a screening phase, a treatment phase (included baseline). Eligible subjects were admitted to the study site on Day −1 and resided at the study site from Day −1 to Day 17. The first dose of study drug was administered on Day 1, under fasted conditions, according to the randomization schedule. The same QD dose was administered for the remainder of the planned treatment schedule (Day 2 to Day 14, inclusive). For each dose level cohort in Part 2, blood samples were collected on Day 1 predose (0-hour), and predose (0-hour) on Days 2, 3, 5, 8, 11, and 14. Blood samples were also collected at approximately the same time of the day as the Days 1 to 14 samples on Days 15, 17, 21, and 28. Subjects were discharged from the study site on Day 17 upon satisfactory safety review and completion of the required study procedures. For all dose level cohorts, subjects returned to the study site for outpatient visits on Day 21 and Day 28. There were no early terminations.
Ex vivo stimulation was performed in whole blood using the TruCulture® assay system (Myriad RBM, Austin, Tex.). […] Briefly, blood (1 ml) was drawn into the LPS-containing TruCulture tubes from each subject on the days listed in the study protocol. The truculture tubes were placed in a 37° C. block thermostat for 24±1 hrs and then frozen at −70° C. Media mixed with plasma was analyzed for TNF-α and other cytokine/chemokine levels. TNF-α inhibition in ex vivo LPS-stimulated blood was measured as percent change in TNF-α levels from baseline. Percent change in other cytokines/chemokines in the ex vivo stimulation assay was also measured with respect to their baseline levels.

SMILES: CCOCc1cnc(Cl)nc1Oc1ccc2c(ccc3sc4c(c32)NC[C@@H](C)NC4=O)n1 [Compound I-82]
- inhibition of gene expression of MCP-1 (PBMCs; FIG. 5A): inhibition of gene expression; also recorded: inhibits gene expression
- inhibition of gene expression of IL-6 (PBMCs; FIG. 5B): inhibition of gene expression; also recorded: inhibits gene expression
- inhibition of gene expression of IL-1β (PBMCs; FIG. 5C): inhibition of gene expression; also recorded: inhibits gene expression
- inhibition of gene expression of TNF-α (PBMCs; FIG. 6A): inhibits gene expression
- inhibition of gene expression of GM-CSF (PBMCs; FIG. 6B): inhibition of gene expression; also recorded: inhibits gene expression
- inhibition of gene expression of ZFP36 (TTP) (PBMCs; FIG. 6C): does not inhibit gene expression
- inhibition of IL-6 in macrophages (macrophages; LPS 3 or 23 hours, FIG. 4A): dose-dependent inhibition; also recorded: inhibits
- inhibition of IL-1β in macrophages (macrophages; LPS 3 or 23 hours, FIG. 4B): dose-dependent inhibition; also recorded: inhibits
- inhibition of TNF-α in macrophages (macrophages; LPS (100 ng/ml) 3 or 23 hours, FIG. 3): dose-dependent inhibition; also recorded: inhibits
- inhibition of TNF-α in PBMCs ([1]; LPS stimulation 24 hours, FIG. 1A): dose dependent inhibition; also recorded: decreased in a dose-dependent manner
- inhibition of TNF-α in PBMCs ([1]; SEB/IL-2 treatment 3 days, FIG. 1B): dose dependent inhibition; also recorded: decreased in a dose-dependent manner
- inhibition of TNF-α in monocytes (monocytes; LPS stimulation 23 hours, FIG. 2): dose dependent inhibition; also recorded: decreased in a dose-dependent manner
- inhibition of TNF-α in monocytes (monocytes; compound 4 h or 24 h, LPS 3 or 23 hours, FIG. 3): dose-dependent inhibition; also recorded: inhibits
- inhibition of IL-6 in monocytes (monocytes; compound 4 h or 24 h, LPS 3 or 23 hours, FIG. 4A): dose-dependent inhibition; also recorded: inhibits
- inhibition of IL-1β in monocytes (monocytes; compound 4 h or 24 h, LPS 3 or 23 hours, FIG. 4B): dose-dependent inhibition; also recorded: inhibits
- inhibition of IL-6 following ex vivo LPS stimulation (whole blood; FIG. 8B): inhibition of IL-6
- inhibition of MIP-1A following ex vivo LPS stimulation (whole blood; FIG. 8C): inhibition of MIP-1A
- inhibition of MIP-1B following ex vivo LPS stimulation (whole blood; FIG. 8D): inhibition of MIP-1B
